According to patent publication US10758534B2 (Vertex Pharmaceuticals Incorporated, priority 2014, dated 2020):

target: T1, F508del (Homo sapiens, UniProt P13569, DEL508-508); experiment: Protocol 2: FRET membrane potential optical assay (VIPR), identification of correction compounds; type: cell-based; conditions: Table 3; compounds of Table 1 as modulators of CFTR activity; protocol not stated
T1 construct: expressed in transfected cells
Procedure, shortened: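 Corrector readout: membrane-potential FRET (CC2-DMPE donor, DiSBAC2(3) acceptor) on VIPR II after Cl⁻-free gluconate bath with 10 μM forskolin and 20 μM genistein. Before this, F508del-expressing NIH3T3 cells were exposed to test compound for 16 h at 37 °C without serum; 27 °C incubation served as temperature-correction control.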

T1 sequence (P13569 with tags, fused parts or gaps DEL508-508): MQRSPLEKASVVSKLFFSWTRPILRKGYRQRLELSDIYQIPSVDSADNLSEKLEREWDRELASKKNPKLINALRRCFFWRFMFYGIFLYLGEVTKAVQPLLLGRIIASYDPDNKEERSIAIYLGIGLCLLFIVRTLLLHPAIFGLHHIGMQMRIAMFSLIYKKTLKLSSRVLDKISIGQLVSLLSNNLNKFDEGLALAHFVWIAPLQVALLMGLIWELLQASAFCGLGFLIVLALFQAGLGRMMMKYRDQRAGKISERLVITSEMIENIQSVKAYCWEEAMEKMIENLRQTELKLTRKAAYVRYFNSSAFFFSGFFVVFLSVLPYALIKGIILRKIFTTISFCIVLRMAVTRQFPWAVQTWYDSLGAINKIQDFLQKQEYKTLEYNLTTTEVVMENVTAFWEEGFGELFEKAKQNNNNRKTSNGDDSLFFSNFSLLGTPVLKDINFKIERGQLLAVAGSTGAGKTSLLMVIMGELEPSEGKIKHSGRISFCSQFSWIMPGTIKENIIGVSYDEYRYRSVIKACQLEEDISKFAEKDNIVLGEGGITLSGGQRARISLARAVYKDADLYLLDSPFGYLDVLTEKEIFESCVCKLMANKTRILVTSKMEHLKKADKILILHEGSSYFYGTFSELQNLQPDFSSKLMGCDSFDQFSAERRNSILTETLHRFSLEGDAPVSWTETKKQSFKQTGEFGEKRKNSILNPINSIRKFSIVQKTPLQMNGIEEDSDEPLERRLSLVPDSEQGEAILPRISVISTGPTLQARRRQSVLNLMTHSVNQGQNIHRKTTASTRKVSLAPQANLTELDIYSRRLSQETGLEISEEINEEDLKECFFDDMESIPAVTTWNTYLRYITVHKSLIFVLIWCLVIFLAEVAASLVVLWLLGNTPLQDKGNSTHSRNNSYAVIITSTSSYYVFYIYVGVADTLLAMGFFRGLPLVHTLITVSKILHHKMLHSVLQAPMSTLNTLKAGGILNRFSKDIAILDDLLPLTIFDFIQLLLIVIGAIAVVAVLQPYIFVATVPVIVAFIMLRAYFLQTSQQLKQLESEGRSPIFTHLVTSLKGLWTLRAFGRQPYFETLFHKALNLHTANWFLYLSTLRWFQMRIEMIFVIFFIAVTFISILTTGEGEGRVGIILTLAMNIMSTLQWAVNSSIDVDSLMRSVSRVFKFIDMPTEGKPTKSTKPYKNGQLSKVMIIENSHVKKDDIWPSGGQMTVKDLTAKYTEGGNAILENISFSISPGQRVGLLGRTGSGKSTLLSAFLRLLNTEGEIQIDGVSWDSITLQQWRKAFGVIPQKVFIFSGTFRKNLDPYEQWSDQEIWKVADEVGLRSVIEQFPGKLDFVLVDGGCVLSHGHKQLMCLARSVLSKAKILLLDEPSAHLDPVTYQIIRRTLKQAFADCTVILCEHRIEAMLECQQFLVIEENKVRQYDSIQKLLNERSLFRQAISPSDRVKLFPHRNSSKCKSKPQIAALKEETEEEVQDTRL

EC30	Compound
+++ (“+++” means <3 uM)	Cc1cc(C)c(Oc2nc(C(C)(C)C)ccc2C(=O)NS(=O)(=O)c2ccn[nH]2)c(C)c1 [Compound 214, 6-tert-butyl-N-(1H-pyrazol-5-ylsulfonyl)-2-(2,4,6-trimethylphenoxy)pyridine-3-carboxamide]
+++ (“+++” means <3 uM)	Cc1cc(C)c(Oc2nc3ccccc3cc2C(=O)NS(=O)(=O)c2ccccc2)c(C)c1 [Compound 215, N-(benzenesulfonyl)-2-(2,4,6-trimethylphenoxy)quinoline-3-carboxamide]
+++ (“+++” means <3 uM)	Cc1cc(C)c(Oc2nc(-c3ccc(C#N)cc3)ccc2C(=O)NS(=O)(=O)c2cccc(N)n2)c(C)c1 [Compound 216, N-[(6-amino-2-pyridyl)sulfonyl]-6-(4-cyanophenyl)-2-(2,4,6-trimethylphenoxy)pyridine-3-carboxamide]
+++ (“+++” means <3 uM)	COc1cc(S(=O)(=O)NC(=O)c2ccc(C(C)(C)C)nc2Oc2c(C)cc(C)cc2C)ccn1 [Compound 217, 6-tert-butyl-N-[(2-methoxy-4-pyridyl)sulfonyl]-2-(2,4,6-trimethylphenoxy)pyridine-3-carboxamide]
+++ (“+++” means <3 uM)	CC(Oc1nc(C(C)(C)C)ccc1C(=O)NS(=O)(=O)c1cccc(N)c1)c1ccccc1 (stereo not shown) [Compound 219, N-(3-aminophenyl)sulfonyl-6-tert-butyl-2-(1-phenylethoxy)pyridine-3-carboxamide]
+++ (“+++” means <3 uM)	Cc1cccc(C)c1Cn1nc(-c2cccc(C(F)(F)F)c2)cc1C(=O)NS(=O)(=O)c1ccccc1 [Compound 220, N-(benzenesulfonyl)-2-[(2,6-dimethylphenyl)methyl]-5-[3-(trifluoromethyl)phenyl]pyrazole-3-carboxamide]
+++ (“+++” means <3 uM)	Cc1cc(C)c(Oc2nc(C(C)(C)C)ccc2C(=O)NS(=O)(=O)c2cccc(N)c2)c(C#N)c1 [Compound 221, N-(3-aminophenyl)sulfonyl-6-tert-butyl-2-(2-cyano-4,6-dimethyl-phenoxy)pyridine-3-carboxamide]

Continued, molecule first:

Compound	EC30
Cc1cc(C)c(Cn2nc(-c3c(C)cccc3C)cc2C(=O)NS(=O)(=O)c2cccc(N)c2)c(C)c1 [Compound 209, N-(3-aminophenyl) sulfonyl-5-(2,6-dimethylphenyl)-2-[(2,4,6-trimethylphenyl)methyl]pyrazole-3-carboxamide]	+++ (“+++” means <3 uM)
Cc1cccc(C)c1Cn1nc(C(C)(C)C)cc1C(=O)NS(=O)(=O)c1cccc2c1ccn2C [Compound 210, 5-tert-butyl-2-[(2,6-dimethylphenyl)methyl]-N-(1-methylindol-4-yl)sulfonyl-pyrazole-3-carboxamide]	+++ (“+++” means <3 uM)
Cc1cccc(C)c1Cn1nc(C(C)(C)C)cc1C(=O)NS(=O)(=O)c1cccc2c1OCC2 [Compound 211, 5-tert-butyl-N-(2,3-dihydrobenzofuran-7-ylsulfonyl)-2-[(2,6-dimethylphenyl)methyl]pyrazole-3-carboxamide]	++ (“++” means between 3 uM and 10 uM)
Cc1cc(C)c(Cn2c(C(=O)NS(=O)(=O)c3ccccc3)cc3ccc(F)cc32)c(C)c1 [Compound 212, N-(benzenesulfonyl)-6-fluoro-1-[(2,4,6-trimethylphenyl)methyl]indole-2-carboxamide]	+++ (“+++” means <3 uM)
Cc1cc(C)c(CN2Cc3ccccc3CC2C(=O)NS(=O)(=O)c2cccc(N)c2)c(C)c1 (stereo not shown) [Compound 213, N-(3-aminophenyl)sulfonyl-2-[(2,4,6-trimethylphenyl)methyl]-3,4-dihydro-1H-isoquinoline-3-carboxamide]	+++ (“+++” means <3 uM)
COc1ncccc1S(=O)(=O)NC(=O)C1c2ccccc2CN1Cc1c(C)cc(C)cc1C (stereo not shown) [Compound 218, N-[(2-methoxy-3-pyridyl)sulfonyl]-2-[(2,4,6-trimethylphenyl)methyl]isoindoline-1-carboxamide]	++ (“++” means between 3 uM and 10 uM)
